Laboratory results taken from US8445291B2, “Method for detecting target substance, and tag, DNA, vector, probe and detection kit for use therewith” (National University Corporation Tokyo Medical and Dental …, priority 2007, dated 2013).

Experiments:
[1] = Circular dichroism spectroscopy of tag peptide, probe peptide and tag-probe mixture; type: physicochemical; settings: for probe peptides that formed an α-helix structure: probe peptide alone; for tag peptides that formed an α-helix structure: tag peptide alone
Method: The circular dichroism spectrum of the tag polypeptides and the probe polypeptides of Examples 1 to 3 were measured.
The structures of the tag peptide, the probe peptide and the tag-probe complex were analyzed by circular dichroism spectroscopy.
In each of FIGS. 3A to 3C, the horizontal axis represents wavelength used for measurement whereas the vertical axis represents molar residue ellipticity.

probe peptide [2] = assay: Fluorescence titration of probe peptide with tag peptide (HEPES buffer), incl. Job's plot; type: binding; settings: for fluorescence wavelength ultimately shifted to on addition of tag peptide: 0.5 μM probe peptide, 0.1 to 2.0 equivalents of tag peptide; for Kd: tag peptide to probe peptide, theoretical formula assuming 1 to 1 interaction, fluorescence at 505 nm, read-out: dissociation constant Kd
Method: Fluorescence titration was performed for the tag polypeptides and the probe polypeptides of Examples 1 to 3.
In the fluorescence titration, the rate of change of the fluorescence intensity at 505 nm was plotted against the concentration of the tag peptide and the dissociation constant was calculated from a theoretical formula assuming 1 to 1 binding of the tag peptide to the probe peptide.
In Example 1, the fluorescence intensity at 505 nm in the presence of 1 equivalent of tag peptide was 18 times as high as that measured in the absence of the tag peptide.
Also in the fluorescence titration, with the total concentration of the tag peptide and the probe peptide being fixed at 1.0 μM, the ratio of the respective concentrations of the tag peptide and the probe peptide was varied and the fluorescence intensity at 505 nm was measured. The measured fluorescence intensity was plotted against the ratio of the tag peptide concentration to the total concentration of the tag peptide and the probe peptide and was analyzed by the theoretical formula assuming 1 to 1 binding of the tag peptide to the probe peptide.

probe peptide [3] = assay: Fluorescence titration in cell lysate; type: binding; settings: HeLa cell lysate, 0.1 to 4.0 equivalents of tag peptide
Method: Fluorescence titration was performed for the tag polypeptides and the robe polypeptides of Example 1 in a cell lysate.
10 mL of a HeLa cell culture solution containing 1.0×10^6 cells/mL were dispensed in a centrifugal tube and the cells were centrifuged for 5 minutes at 1000 rpm to obtain a pellet of HeLa cells. The pellet was dispersed in 1 mL HEPES buffer and the dispersion was sonicated for 10 minutes. Subsequently, the dispersion was filtered through a membrane filter to remove undesired materials and thus give a cell lysate. The probe peptide was dissolved in the cell lysate to a concentration of […]. To this solution, a tag peptide solution was added dropwise until the solution contained 0.1 to 4.0 equivalents of the tag peptide. The resulting solution was subjected to fluorescence spectroscopy.
In FIG. 9, the horizontal axis represents fluorescence wavelength whereas the vertical axis represents fluorescence intensity

[4] = tested on: fused protein of DsRed and PKC having at its N terminal end a tag polypeptide of sequence (A); assay: Imaging of PKC in cytoplasm of CHO.K1 cells through formation of tag-probe complex (observation of NBD); type: cell-based
Method: CHO.K1 cells expressing a fused protein of DsRed and PKC having at its N terminal end a tag polypeptide of sequence (A) as indicated below were prepared using Lipofectamin LTX (Invitrogen).
Subsequently, a permeabilization buffer (20 mM Hepes, pH 7.4, 140 mM KCl, 50 μg/mL saponin, 5 mM oxalic acid) was added to the thus-prepared CHO.K1 cells. After left to stand on ice for 10 min, the cells were washed with PBS, followed by incubating on ice for 20 min in PBS. Thereafter, the cells were incubated in PBS at room temperature for 2 min and then 37° C. for 2 min. Further, the cells were incubated at 37° C. for 30 min in a conditioned medium (Ham's F12) to which a probe indicated by sequence (B) (probe concentration: 1 μM (Final conc.)) had been added.
The medium was changed to a DMEM with no phenol red, and then, the cells were observed by a fluorescence microscope (IX81 (Olympus), objective lens: 20 times) at predetermined emission wavelength (490 nm to 510 nm).
(§1) Separately, before treated with the permeabilization buffer, the above-prepared CHO.K1 cells were treated for 10 min with 10 mM DMSO containing PDBu (phorbol 12,13 dibutyrate; final concentration: 10 μM). The cells were observed by the fluorescence microscope similar to the above.

[5] = tested on: fused protein of DsRed and PKC having at its N terminal end a tag polypeptide indicated by sequence (A); assay: Localization of PKC in cytoplasm (DsRed fluorescence); type: cell-based; settings: CHO.K1 cells treated for 10 min, final concentration 10 μM; 515 nm to 560 nm
Method: as §1
The following was used as a control; a group which was not treated with PDBu, and CHO.K1 cells to which only DIC was introduced (note that DIC is a vector used for introducing into cells the above-mentioned fused protein of DsRed and PKC having at its N terminal end a tag polypeptide indicated by sequence (A). The cells were observed as mentioned above at predetermined wavelength (515 nm to 560 nm). The results are shown in FIG. 11.

[6] = tested on: tag peptide represented by structural formula (8); assay: Crosslink reaction of chloroacetylated probe peptide with tag peptide; type: biochemical; settings: 10 minutes after start, 1.0 μM tag and 1.0 μM probe, 25° C., pH 7.2
Method: The probe peptide for crosslink reaction obtained in Example 7 was used to perform a crosslink reaction.
The probe peptide was crosslinked to a tag peptide represented by the following structural formula (8). The tag polypeptide is identical to that used in Example 1.
To a 1.0 μM tag peptide solution (50 mM HEPES buffer (pH 7.2, 10 mM NaCl)), the probe peptide was added to a concentration of 1.0 μM and the reaction was carried out at 25° C.-1 mL samples were collected from the reaction mixture after 1, 5, 10, 15, 20 and 30 minutes. 1 mL of a 10% aqueous acetic acid solution was added to each sample to quench the reaction. The samples were analyzed by HPLC using a C18 reversed-phase analytical column (4.6×250 mm). The crosslinked product was identified by ESI-TOF MS. The yield of the reaction was calculated from the peak area ratio of HPLC.
In FIG. 10, the horizontal axis represents elapsed time after addition of the probe peptide whereas the vertical axis represents the yield of the crosslink reaction.

Compound | probe peptides that formed an α-helix structure [1] [%] | tag peptides that formed an α-helix structure [1] [%] | tags and probes that formed an α-helix structure in the tag-probe mixture [1] [%] | fluorescence wavelength ultimately shifted to on addition of tag peptide (probe peptide [2]) [nm] | Kd (probe peptide [2]) [nM] | fluorescence intensity at 505 nm relative to that measured in the absence of the tag peptide (probe peptide [2]; in the presence of 1 equivalent of tag peptide) [times] | comparison of fluorescence intensity among Examples 1 to 3 (probe peptide [2]; overlapped spectra of highest peaks, FIG. 5) | spectral changes of probe peptide as tag peptide was added (probe peptide [3]) | localization of NBD-derived fluorescence ([4]; CHO.K1 cells treated for 10 min, final concentration 10 μM) | localization of DsRed-derived fluorescence [5] | yield of the crosslink reaction [6] | NBD-derived fluorescence in cells ([4]; 1 μM probe, permeabilized CHO.K1 cells, around 510 nm)
ALKKELEAGKKELEALKKELAGGCGGALEKELEALEKEGEALEKELA [Example 3] | 53 | 18 | 41 | 526 | 755 |  |  |  |  |  |  | 
ALKKELEAAKKELEALKKELAGGCGGALEKELEALEKEAEALEKELA [Example 1] | 53 | 58 | 71 | 505 | 17.5 | 18 | highest fluorescence intensity | substantially the same spectral changes as in HEPES buffer |  |  |  | 
CCCC(=O)O[C@@H]1[C@@H](C)[C@@]2(O)[C@@H](C=C(CO)C[C@]3(O)C(=O)C(C)=C[C@@H]23)[C@@H]2C(C)(C)[C@]12OC(=O)CCC [PDBu, phorbol 12,13 dibutyrate, reference compound] |  |  |  |  |  |  |  |  | locally observed | locally observed |  | 
ClAc-{Gly}{Ala-Leu-Lys-Lys-Lys-Leu-Glu}{Ala-Leu-Lys-Lys-Lys-Dap(NBD)-Glu}{Ala-Leu-Lys-Lys-Lys-Leu-Ala} [Example 7] |  |  |  |  |  |  |  |  |  |  | at least 80% | increase in fluorescence intensity
ALKKELEALKKELEALKKELAGGCGGALEKELEALEKELEALEKELA [Example 2] | 53 | 81 | 78 | 516 | 24.3 |  |  |  |  |  |  | 
